According to PubChem BioAssay (NCI):
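Protocol summary: plate cells (96-well), add compound at 5 concentrations, incubate 48 h, interpolate endpoints linearly. TGI: concentration producing complete growth inhibition.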

Experiments:
Assay in all cases: DTP human tumour cell line panel, 48 h
[1] = test system: BT-549 breast
[2] = test system: CAKI-1 renal
[3] = test system: CCRF-CEM leukemia
[4] = test system: HL-60(TB) leukemia
[5] = test system: HOP-92 NSCLC
[6] = test system: HS 578T breast
[7] = test system: IGROV1 ovarian
[8] = test system: K-562 leukemia
[9] = test system: LOX IMVI melanoma
[10] = test system: M14 melanoma
[11] = test system: MOLT-4 leukemia
[12] = test system: OVCAR-3 ovarian
[13] = test system: OVCAR-5 ovarian
[14] = test system: PC-3 prostate
[15] = test system: SK-MEL-28 melanoma
[16] = test system: SK-OV-3 ovarian
[17] = test system: SR leukemia
[18] = test system: UO-31 renal
[19] = test system: DU-145 prostate
[20] = test system: MDA-MB-231 breast

| Compound | TGI [1] [µM] | TGI [2] [µM] | TGI [3] [µM] | TGI [4] [µM] | TGI [5] [µM] | TGI [6] [µM] | TGI [7] [µM] | TGI [8] [µM] | TGI [9] [µM] | TGI [10] [µM] | TGI [11] [µM] | TGI [12] [µM] | TGI [13] [µM] | TGI [14] [µM] | TGI [15] [µM] | TGI [16] [µM] | TGI [17] [µM] | TGI [18] [µM] | TGI [19] [µM] | TGI [20] [µM] |
| --- | --- | --- | --- | --- | --- | --- | --- | --- | --- | --- | --- | --- | --- | --- | --- | --- | --- | --- | --- | --- |
| Cc1nnc2n1N=C(c1cc(F)c(Cl)cc1Cl)/C(=C/c1ccc(-c3ccc([N+](=O)[O-])cc3)o1)S2 | > 100 | > 100 | > 100 | > 100 | > 100 | > 100 | > 100 | > 100 | > 100 | > 100 | > 100 | > 100 | > 100 | > 100 | > 100 | > 100 | > 100 | > 100 | – | – |
| O=C(CC(NC(=O)OCc1ccccc1)C(=O)NC1Cc2ccccc2C1=O)OCc1ccccc1 (centres undefined) | > 100 | > 100 | – | – | – | > 100 | > 100 | > 100 | – | > 100 | > 100 | > 100 | > 100 | > 100 | > 100 | > 100 | > 100 | > 100 | > 100 | – |
| CC(C)OC(=O)NCCn1cc(-c2ccccc2)nn1 | > 100 | > 100 | > 100 | > 100 | > 100 | – | – | > 100 | > 100 | > 100 | > 100 | – | > 100 | > 100 | > 100 | – | > 100 | – | > 100 | > 100 |
| O=C(Cc1ccccc1)NN1C(=O)C(Cl)C1c1ccc(Cl)cc1 (centres undefined) | – | > 100 | > 100 | > 100 | – | – | > 100 | > 100 | > 100 | > 100 | > 100 | > 100 | > 100 | – | > 100 | > 100 | > 100 | > 100 | – | – |
| N/N=c1/nc2n(c3ncccc13)C=CNN2 | – | > 100 | > 100 | > 100 | > 100 | – | > 100 | > 100 | > 100 | – | > 100 | > 100 | > 100 | – | > 100 | > 100 | > 100 | – | – | – |
| O=C(O)CN1CCSc2ccccc2CN(CC(=O)O)CCSc2ccccc2C1 | – | > 100 | > 100 | > 100 | > 100 | – | > 100 | > 100 | > 100 | > 100 | – | > 100 | > 100 | – | > 100 | > 100 | 84.5 | > 100 | – | – |
| C=CC(=O)NCCC(=O)OCn1cc(F)c(=O)[nH]c1=O | > 100 | > 100 | > 100 | > 100 | > 100 | > 100 | > 100 | > 100 | > 100 | > 100 | > 100 | > 100 | > 100 | > 100 | > 100 | > 100 | 52.5 | > 100 | > 100 | – |
| COCCN(C(=O)c1ccccc1)C1CCC2(SCCS2)c2[nH]c3ccccc3c21 (centres undefined) | – | > 100 | > 100 | 55.2 | 78 | > 100 | > 100 | > 100 | > 100 | – | 69.4 | > 100 | > 100 | 59.3 | > 100 | – | > 100 | > 100 | > 100 | > 100 |
| COC(=NC(C)C)NC(C)C | – | – | > 100 | > 100 | > 100 | > 100 | > 100 | > 100 | > 100 | > 100 | > 100 | – | > 100 | > 100 | > 100 | > 100 | > 100 | > 100 | > 100 | > 100 |
| O=C(c1ccc2ccccc2c1)C1(I)S(=O)(=O)OCCOS1(=O)=O | > 100 | > 100 | > 100 | > 100 | – | – | – | > 100 | – | > 100 | > 100 | > 100 | > 100 | > 100 | > 100 | – | > 100 | > 100 | > 100 | > 100 |
| CN1CCN(Cn2nc(COc3ccccc3Cl)n(/N=C/c3ccc(-c4ccc(Cl)cc4Cl)o3)c2=S)CC1 | – | 50.4 | > 100 | 55.1 | 40.6 | > 100 | > 100 | 89.9 | > 100 | 81.7 | 62.1 | 47.5 | > 100 | 53.6 | > 100 | > 100 | 51.8 | > 100 | 38.3 | 69.5 |
| COc1ccc(/C=C/C(=O)c2cc(OC)cc(OC)c2)cc1 | – | 12.9 | 10.1 | 9.73 | 60.4 | 15.1 | 25.7 | > 100 | 15.4 | 6.83 | > 26.6 | 15.1 | 18.1 | 20.7 | 27 | 27.5 | – | 12.4 | 10.8 | > 28.3 |
| CC(NCc1c(O)ccc2c(-c3ccccc3)cc(=O)oc12)C(=O)O (centres undefined) | – | > 100 | > 100 | > 100 | > 100 | > 100 | > 100 | > 100 | > 100 | > 100 | > 100 | > 100 | > 100 | > 100 | > 100 | > 100 | > 100 | > 100 | > 100 | > 100 |
| C=C=C[P+](c1ccccc1)(c1ccccc1)c1ccccc1 | – | – | 22.3 | 23.4 | – | – | > 100 | 9.46 | – | 19.5 | 16.2 | 34.4 | – | – | 77.7 | > 100 | 60.8 | > 100 | – | – |
